# System: Penicillium spp.
# Experiment: Assay 8: wound protection of ‘Hongyang’ kiwifruit, Penicillium spp.
# Assay type: in vivo
# Settings: wounded ‘Hongyang’ kiwifruit, treatment 24 h before Penicillium, 6 days incubation
# Description: The kiwifruit ‘Hongyang’-based screening assays (assays 8 and 9) were conducted in laboratories at the Plant and Food Research Ruakura Research Centre, Hamilton, New Zealand (PFR). PFR assays focused on wound application of YBCA5 treatment, a commercial biological control treatment and a fungicide were used as comparative controls.
# The ‘Hongyang’ kiwifruit were sourced from the PFR Riwaka Research Orchard in Motueka on 12 Apr. 2017 for fruit based assays 8 and 9. Penicillium spp. Phomopsis spp., Alternaria spp., Colletotrichum spp., Cryptosporiopsis spp. and Botrytis spp. inoculation assays were carried out on ‘Hongyang’ kiwifruit that were picked at the harvest mature stage. […]
# For assays 8 and 9, two sterile paper towels were placed beneath Plix cut-outs, moistened with 40 mL SDW and each fruit placed in disposable lunch boxes (Plix Extra Deep 45/45, containing five Plix fruit cut-outs to prevent fruit from moving), sealed, then placed into large (40 L) plastic bins which were closed to ensure high relative humidity for the first 24 h and incubated on the lab bench at 24° C. […] After 6 days, (Alternaria spp. Botrytis spp., Penicillium spp., Phomopsis spp., Colletotrichum spp.) and 7 days (Cryptosporiopsis spp.), the severity of fungal rot was assessed for each treatment by measuring the lesion length (mm) along the axis of the fruit. […]
smiles,measurement,value
CC(C)NC(=O)N1CC(=O)N(c2cc(Cl)cc(Cl)c2)C1=O [iprodione],"lesion size, comparison between treatments",significantly smaller than the untreated control

# Reference: patent publication US12421489B2, “Biological control of plant pathogenic microorganisms” (priority 2016, dated 2025)
